From article PMC6409085, “Three odorant-binding proteins are involved in the behavioral response of Sogatella furcifera to rice plant volatiles” (PeerJ, 2019)
Several values for one entry are separate records, joined by “and”; a condition that tells them apart may be missing. Identical values can stand only once.

Experiments:
S. furcifera adults = experiment: Y-tube olfactometer behavioral trials; assay type: in vivo, Sogatella furcifera; details: odorant 50 µL/L vs hexane; adults
How it was run: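 Single S. furcifera adults (2 days post-emergence, starved 0.5 h) chose between odorant (100 µL of 50 µL/L on filter paper) and hexane control in a glass Y-tube, charcoal-filtered humidified air 300 mL/min per arm, 25 ± 1 °C, 50% RH. Choice scored if insect passed half an arm and stayed >1 min within 10 min; 45 insects per compound, chi-squared test.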

SfurOBP11 = SfurOBP11 (Sogatella furcifera, UniProt V5T6E3); experiment: biochemical; assay type: binding
SfurOBP11, sequence (V5T6E3 entry or part of it): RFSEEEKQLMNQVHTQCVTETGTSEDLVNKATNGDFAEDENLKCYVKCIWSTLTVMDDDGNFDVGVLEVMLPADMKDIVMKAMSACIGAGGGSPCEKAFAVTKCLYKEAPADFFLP
How it was run: (§1)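 First, 2.0 µM protein in 50 mM Tris-HCl (pH 7.4) was titrated with 1-NPN to obtain K1-NPN. Then odorants (2–20 µM final) competed against 2.0 µM 1-NPN, with fluorescence (ex 337 nm) recorded after 2 min. Ki was computed from IC50 via Ki = IC50/(1 + [1-NPN]/K1-NPN).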

SfurOBP1 = SfurOBP1 (Sogatella furcifera, UniProt V5T8N5); experiment: biochemical; assay type: binding; details: for Fluorescence competitive binding assay, fluorescence intensity: OBP1, three replicate columns
SfurOBP1, sequence (V5T8N5 entry or part of it): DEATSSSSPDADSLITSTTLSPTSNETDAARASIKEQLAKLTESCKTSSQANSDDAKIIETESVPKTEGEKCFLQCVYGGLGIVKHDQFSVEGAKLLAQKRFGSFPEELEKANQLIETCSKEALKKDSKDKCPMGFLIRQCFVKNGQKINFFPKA
How it was run: as §1

SfurOBP3 = SfurOBP3 (Sogatella furcifera, UniProt V5T818); experiment: biochemical; assay type: binding; details: for Fluorescence competitive binding assay, fluorescence intensity: OBP3, three replicate columns
SfurOBP3, sequence (V5T818 entry or part of it): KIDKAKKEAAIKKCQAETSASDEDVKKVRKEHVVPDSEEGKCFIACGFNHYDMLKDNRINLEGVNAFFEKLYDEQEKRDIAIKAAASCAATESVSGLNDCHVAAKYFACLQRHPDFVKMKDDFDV
How it was run: as §1

SfurOBP2 = SfurOBP2 (Sogatella furcifera, UniProt V5T759); experiment: biochemical; assay type: binding
SfurOBP2, sequence (V5T759 entry or part of it): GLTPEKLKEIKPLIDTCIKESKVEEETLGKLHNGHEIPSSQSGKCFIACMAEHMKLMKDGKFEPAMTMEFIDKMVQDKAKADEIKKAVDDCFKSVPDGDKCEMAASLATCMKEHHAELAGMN
How it was run: as §1

CCCCCCCCCCCCCCCCCCC [n-nonadecane]
number of insects choosing hexane arm (S. furcifera adults): 13
number of insects choosing volatilies arm (S. furcifera adults): 15
number of insects failed (no choice) (S. furcifera adults): 12
IC50 (SfurOBP11; SfurOBP11, protein and 1-NPN both 2.0 µM, competitor 2-20 µM, read-out: IC50): > 20 µM
Fluorescence intensity, fluorescence competitive binding assay, OBP11 (SfurOBP11; ligand concentration 2, replicate 1): 39005
Fluorescence intensity, fluorescence competitive binding assay, OBP11 (SfurOBP11; ligand concentration 2, replicate 2): 36085
Fluorescence intensity, fluorescence competitive binding assay, OBP11 (SfurOBP11; ligand concentration 2, replicate 3): 36144
Fluorescence intensity, fluorescence competitive binding assay, OBP11 (SfurOBP11; ligand concentration 4, replicate 1): 38725
Fluorescence intensity, fluorescence competitive binding assay, OBP11 (SfurOBP11; ligand concentration 4, replicate 2): 39209
Fluorescence intensity, fluorescence competitive binding assay, OBP11 (SfurOBP11; ligand concentration 4, replicate 3): 36494
Fluorescence intensity, fluorescence competitive binding assay, OBP11 (SfurOBP11; ligand concentration 6, replicate 1): 38941
Fluorescence intensity, fluorescence competitive binding assay, OBP11 (SfurOBP11; ligand concentration 6, replicate 2): 37869
Fluorescence intensity, fluorescence competitive binding assay, OBP11 (SfurOBP11; ligand concentration 6, replicate 3): 35504
Fluorescence intensity, fluorescence competitive binding assay, OBP11 (SfurOBP11; ligand concentration 8, replicate 1): 38326
Fluorescence intensity, fluorescence competitive binding assay, OBP11 (SfurOBP11; ligand concentration 8, replicate 2): 38320
Fluorescence intensity, fluorescence competitive binding assay, OBP11 (SfurOBP11; ligand concentration 8, replicate 3): 34260
Fluorescence intensity, fluorescence competitive binding assay, OBP11 (SfurOBP11; ligand concentration 10, replicate 1): 39470
Fluorescence intensity, fluorescence competitive binding assay, OBP11 (SfurOBP11; ligand concentration 10, replicate 2): 35190
Fluorescence intensity, fluorescence competitive binding assay, OBP11 (SfurOBP11; ligand concentration 10, replicate 3): 34723
Fluorescence intensity, fluorescence competitive binding assay, OBP11 (SfurOBP11; ligand concentration 12, replicate 1): 35740
Fluorescence intensity, fluorescence competitive binding assay, OBP11 (SfurOBP11; ligand concentration 12, replicate 2): 35339
Fluorescence intensity, fluorescence competitive binding assay, OBP11 (SfurOBP11; ligand concentration 12, replicate 3): 34546
Fluorescence intensity, fluorescence competitive binding assay, OBP11 (SfurOBP11; ligand concentration 14, replicate 1): 33030
Fluorescence intensity, fluorescence competitive binding assay, OBP11 (SfurOBP11; ligand concentration 14, replicate 2): 32494
Fluorescence intensity, fluorescence competitive binding assay, OBP11 (SfurOBP11; ligand concentration 14, replicate 3): 31487
Fluorescence intensity, fluorescence competitive binding assay, OBP11 (SfurOBP11; ligand concentration 16, replicate 1): 29383
Fluorescence intensity, fluorescence competitive binding assay, OBP11 (SfurOBP11; ligand concentration 16, replicate 2): 30154
Fluorescence intensity, fluorescence competitive binding assay, OBP11 (SfurOBP11; ligand concentration 16, replicate 3): 29504
Fluorescence intensity, fluorescence competitive binding assay, OBP11 (SfurOBP11; ligand concentration 18, replicate 1): 32894
Fluorescence intensity, fluorescence competitive binding assay, OBP11 (SfurOBP11; ligand concentration 18, replicate 2): 34140
Fluorescence intensity, fluorescence competitive binding assay, OBP11 (SfurOBP11; ligand concentration 18, replicate 3): 29208
Fluorescence intensity, fluorescence competitive binding assay, OBP11 (SfurOBP11; ligand concentration 20, replicate 1): 31537
Fluorescence intensity, fluorescence competitive binding assay, OBP11 (SfurOBP11; ligand concentration 20, replicate 2): 29929
Fluorescence intensity, fluorescence competitive binding assay, OBP11 (SfurOBP11; ligand concentration 20, replicate 3): 28655
Fluorescence competitive binding assay, fluorescence intensity (SfurOBP1; ligand concentration 2 (μM)): 5361 and 5140 and 5582
Fluorescence competitive binding assay, fluorescence intensity (SfurOBP1; ligand concentration 4 (μM)): 6690 and 6608 and 6742
Fluorescence competitive binding assay, fluorescence intensity (SfurOBP1; ligand concentration 6 (μM)): 8870 and 9897 and 7869
Fluorescence competitive binding assay, fluorescence intensity (SfurOBP1; ligand concentration 8 (μM)): 7482 and 6593 and 11079
Fluorescence competitive binding assay, fluorescence intensity (SfurOBP1; ligand concentration 10 (μM)): 7327 and 7941 and 8862
Fluorescence competitive binding assay, fluorescence intensity (SfurOBP1; ligand concentration 12 (μM)): 8260 and 9027 and 8555
Fluorescence competitive binding assay, fluorescence intensity (SfurOBP1; ligand concentration 14 (μM)): 9439 and 7708 and 9780
Fluorescence competitive binding assay, fluorescence intensity (SfurOBP1; ligand concentration 16 (μM)): 8450 and 9204 and 7552
Fluorescence competitive binding assay, fluorescence intensity (SfurOBP1; ligand concentration 18 (μM)): 9810 and 13450 and 9951
Fluorescence competitive binding assay, fluorescence intensity (SfurOBP1; ligand concentration 20 (μM)): 10406 and 10007 and 8824
IC50 (SfurOBP1; SfurOBP1, protein and 1-NPN both 2.0 µM, competitor 2-20 µM, read-out: IC50): > 20 µM
Fluorescence competitive binding assay, fluorescence intensity (SfurOBP3; ligand concentration 2): 81706 and 89895 and 90926
Fluorescence competitive binding assay, fluorescence intensity (SfurOBP3; ligand concentration 4): 92466 and 96932 and 93745
Fluorescence competitive binding assay, fluorescence intensity (SfurOBP3; ligand concentration 6): 84153 and 91141 and 92184
Fluorescence competitive binding assay, fluorescence intensity (SfurOBP3; ligand concentration 8): 88550 and 83959 and 85903
Fluorescence competitive binding assay, fluorescence intensity (SfurOBP3; ligand concentration 10): 84955 and 81246 and 84347
Fluorescence competitive binding assay, fluorescence intensity (SfurOBP3; ligand concentration 12): 79099 and 81968 and 85076
Fluorescence competitive binding assay, fluorescence intensity (SfurOBP3; ligand concentration 14): 78930 and 78937 and 80614
Fluorescence competitive binding assay, fluorescence intensity (SfurOBP3; ligand concentration 16): 67688 and 71739 and 72376
Fluorescence competitive binding assay, fluorescence intensity (SfurOBP3; ligand concentration 18): 93819 and 87996 and 91999
Fluorescence competitive binding assay, fluorescence intensity (SfurOBP3; ligand concentration 20): 87679 and 80588 and 71651
IC50 (SfurOBP3; SfurOBP3, protein and 1-NPN both 2.0 µM, competitor 2-20 µM, read-out: IC50): > 20 µM
IC50 (SfurOBP2; SfurOBP2, protein and 1-NPN both 2.0 µM, competitor 2-20 µM, read-out: IC50): > 20 µM
Fluorescence competitive binding assay, OBP2 (raw fluorescence reading) (SfurOBP2; ligand concentration 2 (unit not given), replicate column 1 of 3): 22779
Fluorescence competitive binding assay, OBP2 (raw fluorescence reading) (SfurOBP2; ligand concentration 2 (unit not given), replicate column 2 of 3): 20086
Fluorescence competitive binding assay, OBP2 (raw fluorescence reading) (SfurOBP2; ligand concentration 2 (unit not given), replicate column 3 of 3): 21018
Fluorescence competitive binding assay, OBP2 (raw fluorescence reading) (SfurOBP2; ligand concentration 4 (unit not given), replicate column 1 of 3): 21686
Fluorescence competitive binding assay, OBP2 (raw fluorescence reading) (SfurOBP2; ligand concentration 4 (unit not given), replicate column 2 of 3): 22088
Fluorescence competitive binding assay, OBP2 (raw fluorescence reading) (SfurOBP2; ligand concentration 4 (unit not given), replicate column 3 of 3): 20918
Fluorescence competitive binding assay, OBP2 (raw fluorescence reading) (SfurOBP2; ligand concentration 6 (unit not given), replicate column 1 of 3): 24120
Fluorescence competitive binding assay, OBP2 (raw fluorescence reading) (SfurOBP2; ligand concentration 6 (unit not given), replicate column 2 of 3): 23625
Fluorescence competitive binding assay, OBP2 (raw fluorescence reading) (SfurOBP2; ligand concentration 6 (unit not given), replicate column 3 of 3): 22791
Fluorescence competitive binding assay, OBP2 (raw fluorescence reading) (SfurOBP2; ligand concentration 8 (unit not given), replicate column 1 of 3): 22496
Fluorescence competitive binding assay, OBP2 (raw fluorescence reading) (SfurOBP2; ligand concentration 8 (unit not given), replicate column 2 of 3): 24832
Fluorescence competitive binding assay, OBP2 (raw fluorescence reading) (SfurOBP2; ligand concentration 8 (unit not given), replicate column 3 of 3): 23266
Fluorescence competitive binding assay, OBP2 (raw fluorescence reading) (SfurOBP2; ligand concentration 10 (unit not given), replicate column 1 of 3): 22518
Fluorescence competitive binding assay, OBP2 (raw fluorescence reading) (SfurOBP2; ligand concentration 10 (unit not given), replicate column 2 of 3): 23515
Fluorescence competitive binding assay, OBP2 (raw fluorescence reading) (SfurOBP2; ligand concentration 10 (unit not given), replicate column 3 of 3): 22157
Fluorescence competitive binding assay, OBP2 (raw fluorescence reading) (SfurOBP2; ligand concentration 12 (unit not given), replicate column 1 of 3): 23732
Fluorescence competitive binding assay, OBP2 (raw fluorescence reading) (SfurOBP2; ligand concentration 12 (unit not given), replicate column 2 of 3): 24191
Fluorescence competitive binding assay, OBP2 (raw fluorescence reading) (SfurOBP2; ligand concentration 12 (unit not given), replicate column 3 of 3): 22198
Fluorescence competitive binding assay, OBP2 (raw fluorescence reading) (SfurOBP2; ligand concentration 14 (unit not given), replicate column 1 of 3): 22713
Fluorescence competitive binding assay, OBP2 (raw fluorescence reading) (SfurOBP2; ligand concentration 14 (unit not given), replicate column 2 of 3): 20356
Fluorescence competitive binding assay, OBP2 (raw fluorescence reading) (SfurOBP2; ligand concentration 14 (unit not given), replicate column 3 of 3): 21973
Fluorescence competitive binding assay, OBP2 (raw fluorescence reading) (SfurOBP2; ligand concentration 16 (unit not given), replicate column 1 of 3): 21871
Fluorescence competitive binding assay, OBP2 (raw fluorescence reading) (SfurOBP2; ligand concentration 16 (unit not given), replicate column 2 of 3): 23043
Fluorescence competitive binding assay, OBP2 (raw fluorescence reading) (SfurOBP2; ligand concentration 16 (unit not given), replicate column 3 of 3): 23038
Fluorescence competitive binding assay, OBP2 (raw fluorescence reading) (SfurOBP2; ligand concentration 18 (unit not given), replicate column 1 of 3): 25864
Fluorescence competitive binding assay, OBP2 (raw fluorescence reading) (SfurOBP2; ligand concentration 18 (unit not given), replicate column 2 of 3): 26767
Fluorescence competitive binding assay, OBP2 (raw fluorescence reading) (SfurOBP2; ligand concentration 18 (unit not given), replicate column 3 of 3): 25338
Fluorescence competitive binding assay, OBP2 (raw fluorescence reading) (SfurOBP2; ligand concentration 20 (unit not given), replicate column 1 of 3): 26712
Fluorescence competitive binding assay, OBP2 (raw fluorescence reading) (SfurOBP2; ligand concentration 20 (unit not given), replicate column 2 of 3): 23676
Fluorescence competitive binding assay, OBP2 (raw fluorescence reading) (SfurOBP2; ligand concentration 20 (unit not given), replicate column 3 of 3): 24323
